US20230210831A1, “CHRONIC KIDNEY DISEASE TREATMENT OR PREVENTION METHOD” (Japan Tobacco Inc., priority 2019, published 2023)
Several values for one entry are separate records, joined by “and”; a condition that tells them apart may be missing. Equal entries are not always repeated.

Assays:
Format in all cases: cell-based
[1] = test system: Salmonella typhimurium TA98; experiment: Ames test (reverse mutation test), TA98
Method: (§1) The solvent used herein was dimethyl sulfoxide (DMSO, 100 µL/plate).
(§2) The mixtures were preincubated at 37° C. for 20 minutes while shaking. […] Two plates per treatment were used.

[2] = test system: Salmonella typhimurium TA1537; experiment: Ames test (reverse mutation test), TA1537
Method: as §1, §2

[3] = test system: Salmonella typhimurium TA100; experiment: Ames test (reverse mutation test), TA100
Method: as §1, §2

[4] = test system: Salmonella typhimurium TA1535; experiment: Ames test (reverse mutation test), TA1535
Method: as §1, §2

[5] = test system: Escherichia coli WP2uvrA; experiment: Ames test (reverse mutation test), WP2uvrA; settings: WP2uvrA
Method: as §1, §2

[6] = test system: Salmonella typhimurium (TA98, TA1537, TA100, and TA1535) and Escherichia coli (WP2uvrA); experiment: Ames test (reverse mutation test), overall conclusion over all tester strains; settings: all bacterial tester strains, with and/or without S9 mix
Method: as §1, §2
Details are explained as follows.

CC(C)(C)Oc1cc(F)cc(-c2cc(N)nn2C(F)(F)F)c1 [Metabolite 1]
Number of revertant colonies ([1]; TA98, +S9 mix, 2.3 µg/plate): 35 | Number of revertant colonies ([1]; TA98, +S9 mix, 6.9 µg/plate): 31 | Number of revertant colonies ([1]; TA98, +S9 mix, 21 µg/plate): 35 | Number of revertant colonies ([1]; TA98, +S9 mix, 62 µg/plate): 28 | Number of revertant colonies ([1]; TA98, +S9 mix, 185 µg/plate): 16 | Number of revertant colonies ([1]; TA98, +S9 mix, 556 µg/plate): 15 | Number of revertant colonies ([1]; TA98, +S9 mix, 1667 µg/plate): 13 | Number of revertant colonies ([1]; TA98, +S9 mix, 5000 µg/plate): 13 | Number of revertant colonies ([1]; TA98, -S9 mix, 2.3 µg/plate): 14 | Number of revertant colonies ([1]; TA98, -S9 mix, 6.9 µg/plate): 16 | Number of revertant colonies ([1]; TA98, -S9 mix, 21 µg/plate): 14 | Number of revertant colonies ([1]; TA98, -S9 mix, 62 µg/plate): 21 | Number of revertant colonies ([1]; TA98, -S9 mix, 185 µg/plate): 9 | Number of revertant colonies ([1]; TA98, -S9 mix, 556 µg/plate): 0 | Number of revertant colonies ([1]; TA98, -S9 mix, 1667 µg/plate): 0 | Number of revertant colonies ([1]; TA98, -S9 mix, 5000 µg/plate): 0 | Number of revertant colonies ([2]; TA1537, +S9 mix, 2.3 µg/plate): 11 | Number of revertant colonies ([2]; TA1537, +S9 mix, 6.9 µg/plate): 10 | Number of revertant colonies ([2]; TA1537, +S9 mix, 21 µg/plate): 9 | Number of revertant colonies ([2]; TA1537, +S9 mix, 62 µg/plate): 6 | Number of revertant colonies ([2]; TA1537, +S9 mix, 185 µg/plate): 2 | Number of revertant colonies ([2]; TA1537, +S9 mix, 556 µg/plate): 0 | Number of revertant colonies ([2]; TA1537, +S9 mix, 1667 µg/plate): 0 | Number of revertant colonies ([2]; TA1537, +S9 mix, 5000 µg/plate): 0 | Number of revertant colonies ([2]; TA1537, -S9 mix, 2.3 µg/plate): 7 | Number of revertant colonies ([2]; TA1537, -S9 mix, 6.9 µg/plate): 10 | Number of revertant colonies ([2]; TA1537, -S9 mix, 21 µg/plate): 9 | Number of revertant colonies ([2]; TA1537, -S9 mix, 62 µg/plate): 9 | Number of revertant colonies ([2]; TA1537, -S9 mix, 185 µg/plate): 0 | Number of revertant colonies ([2]; TA1537, -S9 mix, 556 µg/plate): 0 | Number of revertant colonies ([2]; TA1537, -S9 mix, 1667 µg/plate): 0 | Number of revertant colonies ([2]; TA1537, -S9 mix, 5000 µg/plate): 0 | Number of revertant colonies ([3]; TA100, +S9 mix, 2.3 µg/plate): 120 | Number of revertant colonies ([3]; TA100, +S9 mix, 6.9 µg/plate): 119 | Number of revertant colonies ([3]; TA100, +S9 mix, 21 µg/plate): 117 | Number of revertant colonies ([3]; TA100, +S9 mix, 62 µg/plate): 104 | Number of revertant colonies ([3]; TA100, +S9 mix, 185 µg/plate): 78 | Number of revertant colonies ([3]; TA100, +S9 mix, 556 µg/plate): 59 | Number of revertant colonies ([3]; TA100, +S9 mix, 1667 µg/plate): 50 | Number of revertant colonies ([3]; TA100, +S9 mix, 5000 µg/plate): 52 | Number of revertant colonies ([3]; TA100, -S9 mix, 2.3 µg/plate): 99 | Number of revertant colonies ([3]; TA100, -S9 mix, 6.9 µg/plate): 113 | Number of revertant colonies ([3]; TA100, -S9 mix, 21 µg/plate): 124 | Number of revertant colonies ([3]; TA100, -S9 mix, 62 µg/plate): 88 | Number of revertant colonies ([3]; TA100, -S9 mix, 185 µg/plate): 38 | Number of revertant colonies ([3]; TA100, -S9 mix, 556 µg/plate): 0 | Number of revertant colonies ([3]; TA100, -S9 mix, 1667 µg/plate): 0 | Number of revertant colonies ([3]; TA100, -S9 mix, 5000 µg/plate): 0 | Number of revertant colonies ([4]; TA1535, +S9 mix, 1667 µg/plate): 4 | Number of revertant colonies ([4]; TA1535, -S9 mix, 62 µg/plate): 8 | Number of revertant colonies ([4]; TA1535, -S9 mix, 185 µg/plate): 0 | Number of revertant colonies ([4]; TA1535, -S9 mix, 556 µg/plate): 0 | Number of revertant colonies ([4]; TA1535, -S9 mix, 1667 µg/plate): 0 | Number of revertant colonies ([5]; +S9 mix, 2.3 µg/plate): 31 | Number of revertant colonies ([5]; +S9 mix, 6.9 µg/plate): 31 | Number of revertant colonies ([5]; +S9 mix, 12 µg/plate): 28 | Number of revertant colonies ([5]; +S9 mix, 21 µg/plate): 32 and 25 | Number of revertant colonies ([5]; +S9 mix, 36 µg/plate): 34 | Number of revertant colonies ([5]; +S9 mix, 62 µg/plate): 40 and 35 | Number of revertant colonies ([5]; +S9 mix, 185 µg/plate): 16 and 9 | Number of revertant colonies ([5]; +S9 mix, 556 µg/plate): 18 | Number of revertant colonies ([5]; +S9 mix, 1667 µg/plate): 9 | Number of revertant colonies ([5]; +S9 mix, 5000 µg/plate): 0 | Number of revertant colonies ([5]; -S9 mix, 2.3 µg/plate): 32 | Number of revertant colonies ([5]; -S9 mix, 6.9 µg/plate): 27 | Number of revertant colonies ([5]; -S9 mix, 21 µg/plate): 31 | Number of revertant colonies ([5]; -S9 mix, 62 µg/plate): 24 | Number of revertant colonies ([5]; -S9 mix, 185 µg/plate): 15 | Number of revertant colonies ([5]; -S9 mix, 556 µg/plate): 8 | Number of revertant colonies ([5]; -S9 mix, 1667 µg/plate): 5 | Number of revertant colonies ([5]; -S9 mix, 5000 µg/plate): 0 | potential to induce reverse mutations [6]: did not show potential to induce reverse mutations

Nc1cc(-c2cc(F)cc(OC(F)(F)F)c2)n(-c2cncc(C(F)(F)F)c2)n1 [Metabolite 5]
Number of revertant colonies ([1]; TA98, +S9 mix, 6.9 µg/plate): 36 | Number of revertant colonies ([1]; TA98, +S9 mix, 21 µg/plate): 38 | Number of revertant colonies ([1]; TA98, +S9 mix, 62 µg/plate): 38 | Number of revertant colonies ([1]; TA98, +S9 mix, 185 µg/plate): 33 | Number of revertant colonies ([1]; TA98, +S9 mix, 556 µg/plate): 27 | Number of revertant colonies ([1]; TA98, +S9 mix, 1667 µg/plate): 25 | Number of revertant colonies ([1]; TA98, +S9 mix, 5000 µg/plate): 17 | Number of revertant colonies ([1]; TA98, -S9 mix, 6.9 µg/plate): 29 | Number of revertant colonies ([1]; TA98, -S9 mix, 21 µg/plate): 28 | Number of revertant colonies ([1]; TA98, -S9 mix, 62 µg/plate): 29 | Number of revertant colonies ([1]; TA98, -S9 mix, 185 µg/plate): 26 | Number of revertant colonies ([1]; TA98, -S9 mix, 556 µg/plate): 24 | Number of revertant colonies ([1]; TA98, -S9 mix, 1667 µg/plate): 18 | Number of revertant colonies ([1]; TA98, -S9 mix, 5000 µg/plate): 14 | Number of revertant colonies ([2]; TA1537, +S9 mix, 6.9 µg/plate): 13 | Number of revertant colonies ([2]; TA1537, +S9 mix, 21 µg/plate): 11 | Number of revertant colonies ([2]; TA1537, +S9 mix, 62 µg/plate): 12 | Number of revertant colonies ([2]; TA1537, +S9 mix, 185 µg/plate): 12 | Number of revertant colonies ([2]; TA1537, +S9 mix, 556 µg/plate): 8 | Number of revertant colonies ([2]; TA1537, +S9 mix, 1667 µg/plate): 3 | Number of revertant colonies ([2]; TA1537, +S9 mix, 5000 µg/plate): 1 | Number of revertant colonies ([2]; TA1537, -S9 mix, 6.9 µg/plate): 8 | Number of revertant colonies ([2]; TA1537, -S9 mix, 21 µg/plate): 7 | Number of revertant colonies ([2]; TA1537, -S9 mix, 62 µg/plate): 8 | Number of revertant colonies ([2]; TA1537, -S9 mix, 185 µg/plate): 7 | Number of revertant colonies ([2]; TA1537, -S9 mix, 556 µg/plate): 2 | Number of revertant colonies ([2]; TA1537, -S9 mix, 1667 µg/plate): 3 | Number of revertant colonies ([2]; TA1537, -S9 mix, 5000 µg/plate): 2 | Number of revertant colonies ([3]; TA100, +S9 mix, 6.9 µg/plate): 134 | Number of revertant colonies ([3]; TA100, +S9 mix, 21 µg/plate): 123 | Number of revertant colonies ([3]; TA100, +S9 mix, 62 µg/plate): 108 | Number of revertant colonies ([3]; TA100, +S9 mix, 185 µg/plate): 103 | Number of revertant colonies ([3]; TA100, +S9 mix, 556 µg/plate): 99 | Number of revertant colonies ([3]; TA100, +S9 mix, 1667 µg/plate): 67 | Number of revertant colonies ([3]; TA100, +S9 mix, 5000 µg/plate): 43 | Number of revertant colonies ([3]; TA100, -S9 mix, 6.9 µg/plate): 88 | Number of revertant colonies ([3]; TA100, -S9 mix, 21 µg/plate): 91 | Number of revertant colonies ([3]; TA100, -S9 mix, 62 µg/plate): 93 | Number of revertant colonies ([3]; TA100, -S9 mix, 185 µg/plate): 92 | Number of revertant colonies ([3]; TA100, -S9 mix, 556 µg/plate): 59 | Number of revertant colonies ([3]; TA100, -S9 mix, 1667 µg/plate): 29 | Number of revertant colonies ([3]; TA100, -S9 mix, 5000 µg/plate): 12 | Number of revertant colonies ([4]; TA1535, +S9 mix, 62 µg/plate): 10 | Number of revertant colonies ([4]; TA1535, -S9 mix, 5000 µg/plate): 4 | Number of revertant colonies ([5]; +S9 mix, 6.9 µg/plate): 22 | Number of revertant colonies ([5]; +S9 mix, 21 µg/plate): 22 | Number of revertant colonies ([5]; +S9 mix, 62 µg/plate): 21 | Number of revertant colonies ([5]; +S9 mix, 185 µg/plate): 21 | Number of revertant colonies ([5]; +S9 mix, 556 µg/plate): 18 | Number of revertant colonies ([5]; +S9 mix, 1667 µg/plate): 21 | Number of revertant colonies ([5]; +S9 mix, 5000 µg/plate): 19 | Number of revertant colonies ([5]; -S9 mix, 6.9 µg/plate): 23 | Number of revertant colonies ([5]; -S9 mix, 21 µg/plate): 15 | Number of revertant colonies ([5]; -S9 mix, 62 µg/plate): 23 | Number of revertant colonies ([5]; -S9 mix, 185 µg/plate): 20 | Number of revertant colonies ([5]; -S9 mix, 556 µg/plate): 22 | Number of revertant colonies ([5]; -S9 mix, 1667 µg/plate): 19 | Number of revertant colonies ([5]; -S9 mix, 5000 µg/plate): 14 | potential to induce reverse mutations [6]: did not show potential to induce reverse mutations
